From ChEMBL document CHEMBL1909046, “DrugMatrix in vitro pharmacology data”
Where a SMILES comes first, the peptide text is derived from it. Bridges are numbered along the chain shown (N, C = ends). [ ]: non-standard residue; d: D form. The star is where a group is joined. Threoninol(2S,3R) = C[C@@H](O)[C@H](CO)N*

Columns and labels:
[1] = molecular target: 5-hydroxytryptamine receptor 1B (Rattus norvegicus, UniProt P28564); type: cell membranes, Wistar, Cerebral cortex, Membrane; also: in other assays of this panel Not Active means under 50% inhibition at 10 µM
5-hydroxytryptamine receptor 1B, sequence (P28564 whole entry): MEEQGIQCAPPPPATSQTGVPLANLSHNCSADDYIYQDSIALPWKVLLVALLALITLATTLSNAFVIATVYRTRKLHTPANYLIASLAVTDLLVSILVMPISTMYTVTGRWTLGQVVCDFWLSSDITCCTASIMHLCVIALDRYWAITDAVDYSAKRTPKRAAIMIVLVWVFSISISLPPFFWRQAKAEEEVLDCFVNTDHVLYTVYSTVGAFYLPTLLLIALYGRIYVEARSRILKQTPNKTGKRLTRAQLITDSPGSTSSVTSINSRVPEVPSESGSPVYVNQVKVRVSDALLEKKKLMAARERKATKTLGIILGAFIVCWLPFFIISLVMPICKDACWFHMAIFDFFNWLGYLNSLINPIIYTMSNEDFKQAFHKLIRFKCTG

[2] = molecular target: T1, 3-hydroxy-3-methylglutaryl-coenzyme A reductase (Homo sapiens, UniProt P04035); parameters: species or system Escherichia coli;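 also: enzyme inhibition assay of HMG-CoA reductase using radiolabeled [14C]HMG-CoA as substrate; in other assays of this panel Not Active means under 50% inhibition at 10 µM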
T1 sequence (P04035 whole entry): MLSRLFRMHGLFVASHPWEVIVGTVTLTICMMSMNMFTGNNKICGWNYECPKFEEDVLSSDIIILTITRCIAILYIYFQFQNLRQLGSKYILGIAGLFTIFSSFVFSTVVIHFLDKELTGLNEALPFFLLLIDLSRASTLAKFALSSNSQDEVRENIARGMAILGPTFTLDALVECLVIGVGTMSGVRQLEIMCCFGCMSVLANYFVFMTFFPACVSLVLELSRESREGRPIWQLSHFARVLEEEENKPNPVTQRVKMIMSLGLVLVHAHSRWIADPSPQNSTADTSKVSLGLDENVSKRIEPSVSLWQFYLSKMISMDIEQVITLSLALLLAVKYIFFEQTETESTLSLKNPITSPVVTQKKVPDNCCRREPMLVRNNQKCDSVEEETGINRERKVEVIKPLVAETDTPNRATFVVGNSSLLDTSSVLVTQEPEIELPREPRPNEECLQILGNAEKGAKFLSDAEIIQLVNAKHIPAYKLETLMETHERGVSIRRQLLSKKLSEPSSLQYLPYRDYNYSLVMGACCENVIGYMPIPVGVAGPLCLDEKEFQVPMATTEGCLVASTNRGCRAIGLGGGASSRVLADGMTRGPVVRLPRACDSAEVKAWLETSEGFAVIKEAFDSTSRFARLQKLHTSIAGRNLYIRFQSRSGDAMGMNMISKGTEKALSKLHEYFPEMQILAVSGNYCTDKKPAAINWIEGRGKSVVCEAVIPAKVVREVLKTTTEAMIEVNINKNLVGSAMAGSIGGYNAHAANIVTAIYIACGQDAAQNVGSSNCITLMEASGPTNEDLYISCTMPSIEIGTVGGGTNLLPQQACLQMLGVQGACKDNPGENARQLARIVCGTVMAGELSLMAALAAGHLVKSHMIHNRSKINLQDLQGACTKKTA

[3] = molecular target: T2, Alpha-1D adrenergic receptor (Homo sapiens, UniProt P25100); type: cell membranes, HEK293, Membrane; conditions: hek293; also: in other assays of this panel Not Active means under 50% inhibition at 10 µM
T2 sequence (P25100 whole entry): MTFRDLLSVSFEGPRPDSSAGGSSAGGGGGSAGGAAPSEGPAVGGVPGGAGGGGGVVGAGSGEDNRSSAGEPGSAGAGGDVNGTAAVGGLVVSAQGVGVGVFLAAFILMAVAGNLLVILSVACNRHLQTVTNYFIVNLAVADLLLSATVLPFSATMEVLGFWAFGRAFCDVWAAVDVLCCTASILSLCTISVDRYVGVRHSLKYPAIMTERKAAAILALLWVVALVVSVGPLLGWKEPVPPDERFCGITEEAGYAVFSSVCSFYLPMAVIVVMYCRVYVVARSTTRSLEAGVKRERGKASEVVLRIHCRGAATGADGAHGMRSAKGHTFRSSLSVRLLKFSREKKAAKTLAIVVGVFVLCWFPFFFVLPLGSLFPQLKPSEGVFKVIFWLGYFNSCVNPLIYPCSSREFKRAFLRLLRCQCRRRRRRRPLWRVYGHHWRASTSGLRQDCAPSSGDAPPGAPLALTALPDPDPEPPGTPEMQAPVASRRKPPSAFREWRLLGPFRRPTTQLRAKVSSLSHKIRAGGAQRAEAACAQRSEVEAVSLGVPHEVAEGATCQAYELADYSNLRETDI

[4] = molecular target: T3, 5-hydroxytryptamine receptor 2C (Homo sapiens, UniProt P28335); test: DRUGMATRIX: Serotonin (5-Hydroxytryptamine) 5-HT2C radioligand binding (ligand: [3H] Mesulergine); type: cell membranes, CHO-K1, Membrane; conditions: cho-k1; Not Active = under 50% inhibition at 10 µM
T3 sequence (P28335 whole entry): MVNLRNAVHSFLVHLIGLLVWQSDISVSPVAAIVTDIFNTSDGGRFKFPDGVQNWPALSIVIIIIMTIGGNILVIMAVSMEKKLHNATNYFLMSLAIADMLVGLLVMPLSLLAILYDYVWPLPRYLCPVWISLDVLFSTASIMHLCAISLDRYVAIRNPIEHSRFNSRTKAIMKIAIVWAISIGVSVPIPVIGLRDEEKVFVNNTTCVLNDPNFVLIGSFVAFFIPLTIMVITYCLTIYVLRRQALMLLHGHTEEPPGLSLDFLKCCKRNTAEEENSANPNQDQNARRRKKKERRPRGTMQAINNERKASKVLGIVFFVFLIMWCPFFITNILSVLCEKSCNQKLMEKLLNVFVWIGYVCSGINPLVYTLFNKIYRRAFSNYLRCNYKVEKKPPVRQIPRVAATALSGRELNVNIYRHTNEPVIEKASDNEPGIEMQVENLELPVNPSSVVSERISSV

[5] = molecular target: Mitogen-activated protein kinase 14 (Homo sapiens, UniProt Q16539); parameters: species or system Escherichia coli;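 also: inhibition of p38alpha enzyme activity in a biochemical kinase assay, with myelin basic protein serving as substrate; in other assays of this panel Not Active means under 50% inhibition at 10 µM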
Mitogen-activated protein kinase 14, sequence (Q16539 whole entry): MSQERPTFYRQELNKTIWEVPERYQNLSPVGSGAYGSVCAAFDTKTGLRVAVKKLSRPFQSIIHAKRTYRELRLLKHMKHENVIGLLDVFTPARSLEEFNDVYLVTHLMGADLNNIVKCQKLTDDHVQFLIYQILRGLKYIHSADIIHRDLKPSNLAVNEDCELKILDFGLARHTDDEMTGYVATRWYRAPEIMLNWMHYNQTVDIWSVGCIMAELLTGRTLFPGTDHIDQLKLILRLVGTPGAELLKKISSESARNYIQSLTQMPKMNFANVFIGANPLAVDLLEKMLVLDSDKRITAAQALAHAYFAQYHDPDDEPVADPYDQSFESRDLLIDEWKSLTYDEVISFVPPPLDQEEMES

| Compound | IC50 [1] | IC50 [2] | IC50 [3] | IC50 [4] | IC50 ([5]; read-out: IC50) | IC50 [5] | Ki [1] | Ki [2] | Ki [5] | Ki [3] | Ki [4] |
| --- | --- | --- | --- | --- | --- | --- | --- | --- | --- | --- | --- |
| COc1ccccc1C(=O)N1CCC(Cc2ccccc2)CC1 | Not Active | Not Active | Not Active | Not Active |  |  |  |  |  |  |  |
| Cc1ccccc1C(=O)N1CCC(Cc2ccccc2)CC1 | Not Active | Not Active | Not Active | Not Active | 329 nM |  |  |  |  |  |  |
| O=C1CC[C@H](N2C(=O)c3ccccc3C2=O)C(=O)N1 | Not Active | Not Active | Not Active | Not Active |  | Not Active |  |  |  |  |  |
| N=C(Nc1ccccc1)Nc1ccccc1 | Not Active | Not Active | Not Active | Not Active |  | Not Active |  |  |  |  |  |
| C[C@@H](O)[C@H](CO)NC(=O)[C@@H]1CSSC[C@H](NC(=O)[C@H](N)Cc2ccccc2)C(=O)N[C@@H](Cc2ccccc2)C(=O)N[C@H](Cc2c[nH]c3ccccc23)C(=O)N[C@@H](CCCCN)C(=O)N[C@@H]([C@@H](C)O)C(=O)N1 (H-[dF]CF[dW]KTC-{Threoninol(2S,3R)}; disulfide 2-7) | Not Active | Not Active | Not Active | Not Active |  | Not Active |  |  |  |  |  |
| S=C=Nc1cccc2ccccc12 [1-NAPHTHYLISOTHIOCYANATE] | Not Active | Not Active | Not Active | Not Active |  | Not Active |  |  |  |  |  |
| C[C@](O)(CS(=O)(=O)c1ccc(F)cc1)C(=O)Nc1ccc(C#N)c(C(F)(F)F)c1 [(R)-BICALUTAMIDE] | Not Active | Not Active | Not Active | Not Active |  | Not Active |  |  |  |  |  |
| CCCC(=O)Nc1ccc(OCC(O)CNC(C)C)c(C(C)=O)c1 (stereo not drawn) [ACEBUTOLOL] | Not Active | Not Active | Not Active | Not Active |  | Not Active |  |  |  |  |  |
| CC(=O)Nc1ccc(O)cc1 [ACETAMINOPHEN] | Not Active | Not Active | Not Active | Not Active |  | Not Active |  |  |  |  |  |
| COc1cc2c(c3oc(=O)c4c(c13)CCC4=O)[C@@H]1C=CO[C@@H]1O2 [AFLATOXIN] | Not Active | Not Active | Not Active | Not Active |  | Not Active | Not Active | Not Active | Not Active | Not Active | Not Active |
| N=C(N)NC(=O)c1nc(Cl)c(N)nc1N [AMILORIDE] | Not Active | Not Active | Not Active | Not Active |  | Not Active |  |  |  |  |  |
| Cc1cc(=O)n(-c2ccccc2)n1C [ANTIPYRINE] | Not Active | Not Active | Not Active | Not Active |  | Not Active |  |  |  |  |  |
| CN1C(=O)COc2c(C(=O)NC3CN4CCC3CC4)cc(Cl)cc21 (stereo not drawn) [AZASETRON] | Not Active | Not Active | Not Active | Not Active |  | Not Active |  |  |  |  |  |
| C[C@H]1C[C@H]2[C@@H]3CCC4=CC(=O)C=C[C@]4(C)[C@@]3(Cl)[C@@H](O)C[C@]2(C)[C@@]1(O)C(=O)CO [BECLOMETHASONE] | Not Active | Not Active | Not Active | Not Active |  | Not Active |  |  |  |  |  |
| CCOC(=O)[C@H](CCc1ccccc1)N[C@H]1CCc2ccccc2N(CC(=O)O)C1=O [BENAZEPRIL] | Not Active | Not Active | Not Active | Not Active |  | Not Active |  |  |  |  |  |
| Nc1c(CC(=O)O)cccc1C(=O)c1ccc(Br)cc1 [BROMFENAC] | Not Active | Not Active | Not Active | Not Active |  | Not Active |  |  |  |  |  |
| CCCCN1CCCCC1C(=O)Nc1c(C)cccc1C.Cl (stereo not drawn) [BUPIVACAINE HYDROCHLORIDE] | Not Active | Not Active | Not Active | Not Active |  | Not Active |  |  |  |  |  |
| O=C1CC2(CCCC2)CC(=O)N1CCCCN1CCN(c2ncccn2)CC1 [BUSPIRONE] | Not Active | Not Active |  | Not Active |  | Not Active |  |  |  |  |  |
| C[C@@]12C(=O)OC(=O)[C@]1(C)[C@H]1CC[C@@H]2O1 [CANTHARIDIN] | Not Active | Not Active | Not Active | Not Active |  | Not Active |  |  |  |  |  |
| O=NN(CCCl)C(=O)NCCCl [CARMUSTINE] | Not Active | Not Active | Not Active | Not Active |  | Not Active |  |  |  |  |  |
| CC1=C(C(=O)O)N2C(=O)[C@@H](NC(=O)[C@H](N)c3ccccc3)[C@H]2SC1 [CEPHALEXIN ANHYDROUS] | Not Active | Not Active | Not Active | Not Active |  | Not Active |  |  |  |  |  |
| O=C(N[C@H](CO)[C@H](O)c1ccc([N+](=O)[O-])cc1)C(Cl)Cl [CHLORAMPHENICOL] | Not Active | Not Active | Not Active | Not Active |  | Not Active |  |  |  |  |  |
| ClC(Cl)Cl [CHLOROFORM] | Not Active | Not Active | Not Active | Not Active |  | Not Active |  |  |  |  |  |
| C=C1CC[C@H](O)C/C1=C/C=C1\CCC[C@]2(C)[C@@H]([C@H](C)CCCC(C)C)CC[C@@H]12 [CHOLECALCIFEROL] | Not Active | Not Active | Not Active | Not Active |  | Not Active |  |  |  |  |  |
| C[N+](C)(C)CCO.[Cl-] [CHOLINE CHLORIDE] | Not Active | Not Active | Not Active | Not Active |  | Not Active |  |  |  |  |  |
| CCOC(=O)C(C)(C)Oc1ccc(Cl)cc1 [CLOFIBRATE] | Not Active | Not Active | Not Active | Not Active |  | Not Active |  |  |  |  |  |
| CC(=O)OCC(=O)[C@@]1(O)CC[C@H]2[C@@H]3CCC4=CC(=O)CC[C@]4(C)[C@H]3C(=O)C[C@@]21C [CORTISONE ACETATE] | Not Active | Not Active | Not Active | Not Active |  | Not Active |  |  |  |  |  |
| O=c1ccc2ccccc2o1 [COUMARIN] | Not Active | Not Active | Not Active | Not Active |  | Not Active |  |  |  |  |  |
| C[C@@H]1C[C@@H]([C@H](O)CC2CC(=O)NC(=O)C2)C(=O)[C@@H](C)C1 [CYCLOHEXIMIDE] | Not Active | Not Active | Not Active | Not Active |  | Not Active |  |  |  |  |  |
| C/C=C/C[C@@H](C)[C@@H](O)[C@H]1C(=O)N[C@@H](CC)C(=O)N(C)CC(=O)N(C)[C@@H](CC(C)C)C(=O)N[C@@H](C(C)C)C(=O)N(C)[C@@H](CC(C)C)C(=O)N[C@@H](C)C(=O)N[C@H](C)C(=O)N(C)[C@@H](CC(C)C)C(=O)N(C)[C@@H](CC(C)C)C(=O)N(C)[C@@H](C(C)C)C(=O)N1C [CYCLOSPORINE] | Not Active | Not Active | Not Active | Not Active |  | Not Active |  |  |  |  |  |
